Experimental data as given in patent publication US20210095322A1, “HIGH-PURITY STEVIOL GLYCOSIDES” (PureCircle USA Inc., priority 2018, published 2021).
Where two headings read alike, the source gives them in different places.

Tests used:
[1] = Solubility characteristics and solution stability in water; format: physicochemical; details: for Solubility: summary of solution stability in water
Description: Solubility characteristics were measured as follows. Prepare the following solutions in water and stir at 700 rpm for each. Add heat if necessary at 2 minutes and 30 seconds of stirring. Using a stopwatch, determine how long it takes all powder to dissolve completely and record the temperature at which it dissolves. The following table summarizes the solubility characteristics of Rebaudiosides D, M, and AM.

[2] = Isosweet determination (2-AFC) vs sucrose in acidified water, sweetness potency; format: in vivo, human; details: pH = 3.2
Description: As an example, Reb AM was evaluated.

[3] = Sweetness perception threshold (FEMA method, 2-AFC vs 1.5% sugar) in neutral water; format: in vivo, human; details: for % Frequency / PC (paired comparison count, panelists choosing the sample as sweeter): 2-AFC, n = 30
Description: A series of experiments were performed to evaluate the effect of Reb AM on taste and flavor profile. The sweetness and taste/flavor modification can influence each other in food and beverage applications. To determine the influence of the taste and flavor modification in different applications, the FEMA (Flavor and Extract Manufacturing Association) prescribes a sensory method that determines the sweetness perception threshold determination presented in Experiment 1, which is discussed below.
Experiment 1 provides the estimate of Reb AM concentration in water that barely contributes to sweetness perception. […] The summary of sweetness perception threshold for selected steviol glycosides is below in Table 11.
Therefore we selected 50 ppm of Reb AM as the recognition threshold concentration.

[4] = Flavor modification of Raspberry Watermelon Coconut Water, sensory panel; format: in vivo, human; design: Sweet Intensity mean score / Bitter Intensity mean score / Astringency mean score / Coconut Flavor mean score / Watermelon Flavor mean score / Raspberry Flavor mean score / Artificial/Chemical Note mean score / Sweet Aftertaste mean score / Bitter Aftertaste mean score / Overall Liking mean score: scale not given here
Excerpt: Thirty panel members evaluated two samples of raspberry watermelon flavored coconut water for overall acceptance and attribute intensities (sweetness, Raspberry flavor, watermelon flavor, coconut water flavor, saltiness, bitterness, and sweet aftertaste, bitter aftertaste) in two sessions. In session one, the two samples included: 1) store-bought Raspberry Watermelon Coconut Water control sample and 2) store-bought Raspberry Watermelon Coconut Water test sample containing Reb AM. The objective of the test was to determine if the addition of Reb AM affects the flavor profile of a non-alcoholic beverage.
The test objective is to determine if the flavor profile and overall acceptance of a Control sample of flavored coconut water differs from a Test sample of the same beverage containing Reb AM.

[5] = Flavor modification of chocolate flavored dairy protein shake, sensory panel; format: in vivo, human; design: Sweet Intensity mean score / Bitterness mean score / Metallic Note mean score / Cocoa Flavor mean score / Dairy Note mean score / Whey Protein Note mean score / Vanilla Note mean score / Sweet Aftertaste mean score / Bitter Aftertaste mean score / Overall Liking mean score: scale not given here
Excerpt: Thirty trained panelists evaluated two samples of chocolate flavored dairy protein shake for overall acceptance and attribute intensities (cocoa flavor, dairy note, whey protein, vanilla, metallic, sweetness, bitterness and aftertaste). The two samples included: 1) no sugar added “Control” sample containing 300 ppm PureCircle Reb A and 2) no sugar added “Test” sample containing 300 ppm PureCircle Reb A and 50 ppm Reb AM. The objective of the test was to determine if the addition of Reb AM affects the flavor profile of a milk product.
The test objective is to determine if the flavor profile and overall acceptance of a control sample of dairy beverage application differs from a Test sample of the same beverage containing Reb AM.

[6] = Taste panel of no-calorie Lemon-lime carbonated soft drink; format: in vivo, human; details: 500 ppm in Lemon-lime CSD
Excerpt: A group of trained and experienced taste panel members evaluated no-calorie Lemon-lime carbonated soft drink (CSD) sweetened with 500 ppm of Reb AM, Reb D, or Reb M samples.

[7] = FEMA GRAS publication; cited from earlier work
[8] = 1.5% Sucrose vs 30 ppm Reb AM in neutral water
[9] = 1.5% Sucrose vs 50 ppm Reb AM in neutral water
[10] = 1.5% Sucrose vs 70 ppm of Reb AM in neutral water
[11] = 1.5% Sucrose vs 100 ppm Reb AM in neutral water
[12] = 50 ppm Reb AM in coconut water, 95% confidence
[13] = Coconut water (raspberry/watermelon flavor) with 50 ppm of Reb AM, 30 panelists
[14] = 50 ppm Reb AM added to shake with 300 ppm Reb A, 95% confidence
[15] = NSA Chocolate Vanilla Protein Dairy Shake w Reb A & 50 ppm Reb AM, 30 panelists

## C=C1C[C@@]23CC[C@H]4[C@@](C)(CCC[C@@]4(C)C(=O)O[C@@H]4O[C@H](CO)[C@@H](O)[C@H](O[C@@H]5O[C@H](CO)[C@@H](O)[C@H](O)[C@H]5O)[C@H]4O[C@@H]4O[C@H](CO)[C@@H](O)[C@H](O)[C@H]4O)[C@@H]2CC[C@]1(O[C@@H]1O[C@H](CO)[C@@H](O)[C@H](O)[C@H]1O[C@@H]1O[C@H](CO)[C@@H](O)[C@H](O)[C@H]1O)C3 [Reb AM, Rebaudioside AM]
[1]; Test Conc. 1%
  Comment on solubility: Easily Soluble
  Dissolution in water (Heated): No heat needed
  Dissolution water (Ambient), stirring time: Stirred for 3 min
  Solution after 24 hrs: Clear
  Solution after 48 hrs: Clear
[1]; Test Conc. 5%
  Comment on solubility: Easily Soluble
  Dissolution in water (Heated), temperature: 45 C.
  Solution after 24 hrs: Clear
  Solution after 48 hrs: Clear
[1]; Test Conc. 10%
  Comment on solubility: Moderately
  Dissolution in water (Heated), temperature: 54 C.
  Solution after 24 hrs: Clear
  Solution after 48 hrs: Slight
[1]
  Solubility: 10%
[1]; water
  Solubility compared with other steviol glycosides: significantly higher solubility than other minor and major steviol glycosides
[2]; 2.5% SE
  Sweetness Equivalent (ppm) in Water: 150 ppm
  Sweetness Potency in Water: 167 x sugar equivalent
[2]; 5.0% SE
  Sweetness Equivalent (ppm) in Water: 365 ppm
  Sweetness Potency in Water: 137 x sugar equivalent
[2]; 7.5% SE
  Sweetness Equivalent (ppm) in Water: 869 ppm
  Sweetness Potency in Water: 86 x sugar equivalent
[2]; 10.0% SE
  Sweetness Equivalent (ppm) in Water: 1750 ppm
  Sweetness Potency in Water: 57 x sugar equivalent
[3]; [8]
  % Frequency: 3.3%
  PC (paired comparison count, panelists choosing the sample as sweeter): 1
[3]; [9]
  % Frequency: 23.3%
  PC (paired comparison count, panelists choosing the sample as sweeter): 7
[3]; [10]
  % Frequency: 70%
  PC (paired comparison count, panelists choosing the sample as sweeter): 21
[3]; [11]
  % Frequency: 90%
  PC (paired comparison count, panelists choosing the sample as sweeter): 27
[3]; 50 ppm in water
  Sweetness perception compared with 1.5% sugar solution: significantly lower
[3]; neutral water, vs 1.5% sugar solution
  Sweetness Perception Threshold Concentration: 50 ppm
[4]; 50 ppm Reb AM in coconut water, 90% confidence
  sweet aftertaste intensity vs control: significantly lower
[4]; [12]
  coconut water flavor vs control: significantly higher
  mango peach flavor vs control: significantly higher
  overall liking vs control: significantly higher
  watermelon flavor vs control: significantly higher
[4]; [13]
  Artificial/Chemical Note mean score: 2.55
  Astringency mean score: 1.10
  Bitter Aftertaste mean score: 0.29
  Bitter Intensity mean score: 0.24
  Coconut Flavor mean score: 5.11
  Overall Liking mean score: 5.04
  Raspberry Flavor mean score: 0.95
  Sweet Aftertaste mean score: 1.33
  Sweet Intensity mean score: 4.44
  Watermelon Flavor mean score: 4.41
[5]; 50 ppm Reb AM added to shake with 300 ppm Reb A
  impact on sweetness intensity: no significant impact
[5]; [14]
  bitter aftertaste vs control: lower
  bitterness vs control: significantly lower
  cocoa flavor vs control: significantly higher
  dairy notes vs control: significantly higher
  metallic note vs control: significantly lower
  overall liking vs control: significantly higher
  vanilla flavor vs control: significantly higher
  whey protein vs control: significantly lower
[5]; [15]
  Bitter Aftertaste mean score: 0.77
  Bitterness mean score: 1.46
  Cocoa Flavor mean score: 4.55
  Dairy Note mean score: 4.59
  Metallic Note mean score: 1.48
  Overall Liking mean score: 5.59
  Sweet Aftertaste mean score: 1.65
  Sweet Intensity mean score: 5.98
  Vanilla Note mean score: 2.52
  Whey Protein Note mean score: 4.32
[6]
  bitterness compared to CSD with Reb D or Reb M: significantly less
  sweetness compared to CSD with Reb D or Reb M: less sweet
  sweetness lingering compared to CSD with Reb D or Reb M: significantly less

## C=C1C[C@@]23CC[C@H]4[C@@](C)(CCC[C@@]4(C)C(=O)O[C@@H]4O[C@H](CO)[C@@H](O)[C@H](O)[C@H]4O[C@@H]4O[C@H](CO)[C@@H](O)[C@H](O)[C@H]4O)[C@@H]2CC[C@]1(O[C@@H]1O[C@H](CO)[C@@H](O)[C@H](O[C@@H]2O[C@H](CO)[C@@H](O)[C@H](O)[C@H]2O)[C@H]1O[C@@H]1O[C@H](CO)[C@@H](O)[C@H](O)[C@H]1O)C3 [Reb D, rebaudioside D]
[1]; Test Conc. 0.05%
  Comment on solubility: Easily Soluble
  Dissolution in water (Heated), temperature: temp: 39 deg. C.
  Solution after 24 hrs: Clear
  Solution after 48 hrs: Clear
[1]; Test Conc. 0.1%
  Comment on solubility: Easily Soluble
  Dissolution in water (Heated), temperature: temp: 72 deg. C.
  Solution after 24 hrs: Clear
  Solution after 48 hrs: Clear
[1]; Test Conc. 0.3%
  Comment on solubility: Requires
  Dissolution in water (Heated), temperature: 78.5 deg. C.
[1]
  Solubility: 0.1%
[2]; 2.5% SE
  Sweetness Equivalent (ppm) in Water: 62 ppm
  Sweetness Potency in Water: 403 x sugar equivalent
[2]; 5.0% SE
  Sweetness Equivalent (ppm) in Water: 212 ppm
  Sweetness Potency in Water: 236 x sugar equivalent
[2]; 7.5% SE
  Sweetness Equivalent (ppm) in Water: 500 ppm
  Sweetness Potency in Water: 150 x sugar equivalent
[2]; 10.0% SE
  Sweetness Equivalent (ppm) in Water: 926 ppm
  Sweetness Potency in Water: 108 x sugar equivalent
[7]
  Sweetness Perception Threshold Concentration: 32.5 ppm

## OC[C@H]1O[C@@](CO)(O[C@H]2O[C@H](CO)[C@@H](O)[C@H](O)[C@H]2O)[C@@H](O)[C@@H]1O [Sucrose]
[3]; [8]
  % Frequency: 96.7%
  PC (paired comparison count, panelists choosing the sample as sweeter): 29
[3]; [9]
  % Frequency: 76.7%
  PC (paired comparison count, panelists choosing the sample as sweeter): 23
[3]; [10]
  % Frequency: 30%
  PC (paired comparison count, panelists choosing the sample as sweeter): 9
[3]; [11]
  % Frequency: 10%
  PC (paired comparison count, panelists choosing the sample as sweeter): 3
